The values below come from patent publication EP0341213A2, “5-Aryl-substituted-2,3-dihydro-imidazo [1,2-a]furo[3,2-c]- or thieno[2,3-c]pyridines” (SANDOZ AG, priority 1988, dated 1989).

Experiment [1] deals with T1, platelet activating factor (PAF) receptor (Homo sapiens, UniProt P25105).
T1 construct: endogenous in cells; host or cells: human platelets
The experiment in a line: Human Platelet PAF Receptor Assay test (test A): inhibition of specific binding of [3H]-PAF to platelets. The text has this:
The compounds of formula I in free base form or in pharmaceutically acceptable acid addition salt form, hereinafter referred to as "the compounds", are indicated for use as platelet activating factor (PAF) receptor antagonists, as indicated by their ability to inhibit specific binding of [^3H)-PAF to platelets according to the Human Platelet PAF Receptor Assay test (test A) as described in WO 88/587.

Experiment [2] deals with PAF-mediated bronchoconstriction. The experiment in a line: PAF-induced Pulmonary Inflation Pressure (PIP) Increase test (test B). The class given is in vivo. The conditions noted are these: po. The protocol: Moreover, in view of their activity as PAF receptor antagonists, the compounds are indicated for use as inhibitors of PAF-mediated bronchoconstriction, which property is evaluated by the PAF-induced Pulmonary Inflation Pressure (PIP) Increase test (test B) as described in WO 88/587, to generate an EDso (dose needed to effect a 50°/o response).

Experiment [3] has as its system PAF-mediated extravasation. Put plainly: PAF-induced Extravasation test (test C), measured as a function of hemoconcentration. The conditions noted are these: po. The class given is in vivo. The text has this: Furthermore, the compounds are indicated for use as inhibitors of PAF-mediated extravasation (the extrusion of plasma from the lumen of the blood vessels into the vessel wall and surrounding tissues) measured as a function of hemoconcentration according to the PAF-induced Extravasation test (test C) as described in WO 88/587. From the values obtained an EDso is generated.

T1 sequence (P25105 whole entry): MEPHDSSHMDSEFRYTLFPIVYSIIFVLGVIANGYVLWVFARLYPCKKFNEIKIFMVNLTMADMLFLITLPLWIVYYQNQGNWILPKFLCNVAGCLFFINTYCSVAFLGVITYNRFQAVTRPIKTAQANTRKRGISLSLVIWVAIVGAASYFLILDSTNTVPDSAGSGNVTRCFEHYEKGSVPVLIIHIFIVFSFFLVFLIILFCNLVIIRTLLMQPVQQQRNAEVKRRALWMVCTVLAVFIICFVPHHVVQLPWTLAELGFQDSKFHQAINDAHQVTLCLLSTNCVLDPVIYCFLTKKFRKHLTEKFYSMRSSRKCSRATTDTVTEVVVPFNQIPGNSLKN

By IC50 is commonly meant the midpoint of a concentration-inhibition curve. With `COc1cc(CCc2ccc(C3=Cc4ccsc4C4=NCCN34)cc2)cc(OC)c1OC` [Example 1, 2,3-Dihydro-5-[4-[2-(3,4,5-trimethoxyphenyl)ethyl]phenyl]imidazo[1,2-a]thieno[2,3-c]pyridine], the IC50 in experiment [1] was 100 nM. In addition, the ED50 in experiment [2] (dose needed to effect a 50% response, read-out: EDso) was determined as 1 mg/kg; in experiment [3] it was 1 mg/kg.

A word on the inhibition: it is the drop in the measured response relative to a control, in per cent. For `COc1cc(CCc2ccc(C3=Cc4oc(C)cc4C4=NCCN34)cc2)cc(OC)c1OC` [Example 2, 2,3-Dihydro-8-methyl-5-[4-[2-(3,4,5-trimethoxyphenyl)ethyl]phenyl]imidazo[1,2-a]furo[3,2-c]pyridine], the IC50 in experiment [1] turned out to be 70 nM. Also, the inhibition at 10 mg/kg in experiment [2] (at 10 mg/kg p.o.) was 38%; in experiment [3] (at 10 mg/kg p.o.) it was 59%.
